# Laboratory results published in paper PMC12348844, “Anti-Trypanosoma cruzi Potential of New Pyrazole-Imidazoline Derivatives” (Molecules, 2025).
# Like-named read-outs stand apart in the source and are kept apart here.
# Tests used:
# [1] = Cytotoxicity assay, Vero cells (CellTiter-Glo); type: cell-based; settings: African green monkey, mean ± SD
# Description: Vero cells, obtained from the Rio de Janeiro Cell Bank (BCRT code 0245) and maintained through weekly subculturing with a dissociation solution containing 0.25% trypsin-EDTA, initiated once the monolayer reached an 80–100% confluence. Following harvesting, the cells were washed and resuspended in RPMI 1640 medium enriched with 10% fetal bovine serum (FBS). Cultures were maintained at 37 °C in a 5% CO2-humidified incubator. These cultures were used for drug screening assays and for producing culture-derived trypomastigotes of T. cruzi.
# Cytotoxicity assays were performed using Vero cells, which were seeded at a density of 1.5 × 10^4 cells per well in white 96-well plates with clear bottoms. Following a 24 h adhesion period, the cultures were incubated at 37 °C in a 5% CO2 atmosphere. […] After 72 h of incubation, cell viability was assessed by adding CellTiter-Glo reagent (Promega Corporation, Madison, WI, USA), which induces cell lysis and reacts with the released ATP to produce luminescence. The resulting luminescence was measured using a Glomax Multi-Detection plate reader (Promega Corporation, Madison, WI, USA). The half-maximal inhibitory concentration (CC50) for cell viability was then calculated using GraphPad Prism software version 8.2.1.
# T. cruzi (Dm28c-Luc) = test: Reversibility (washout) assay in T. cruzi-infected Vero cells; type: cell-based, Trypanosoma cruzi; settings: for parasite load of cell monolayer at 21 dpi (luminescence): untreated 5 × 10^5 A.L.U
# Description: After treatment, the cultures were thoroughly washed, and parasite recrudescence was evaluated over an extended period of 10 days in RPMI medium supplemented with 10% fetal bovine serum (FBS). Culture supernatants were collected at intervals, and the luminescence signal indicative of trypomastigote release was assessed using a Glomax Multi-Detection plate reader (Promega Corporation, Madison, WI, USA) following the addition of luciferin every 2–3 days. At the experiment’s conclusion, the infection profile of the monolayer was also examined. Cells were fixed with PFA for 20 min at 4 °C, then stained with DAPI for microscopy analysis. Luminescence data were expressed in arbitrary luminescent units (A.L.U), and fluorescence images were acquired using the ImageXpress Micro XLS high-content screening (HCS) system (Molecular Devices, Sunnyvale, CA, USA).
# [2] = Cytotoxicity in 3D cardiac spheroids (CellTiter-Glo); type: cell-based; settings: Swiss Webster, mouse, 3D cardiac spheroids from fetal heart muscle cells, 15.6 to 500 µM
# Description: Three-dimensional (3D) heart muscle cell cultures were obtained as previously described. Briefly, heart muscle cells were isolated from 18-day-old Swiss Webster mouse fetuses. The ventricular tissue was fragmented and enzymatically dissociated using a trypsin and collagenase type II solution. The isolated cells were seeded at a density of 2.5 × 10^4 cells/well in 96-well U-bottom microplates previously coated with 1% agarose. The cells were cultured in Dulbecco’s modified Eagle Medium (DMEM) enriched with 10% FBS, 2.5 mM CaCl2, 1 mM L-glutamine, 2% chicken embryo extract, and a cocktail of antibiotics. The cultures were maintained at 37 °C in a 5% CO2 atmosphere. After a 7-day culture period, the resulting fully developed spheroids were used to assess drug-induced cardiotoxicity and evaluate their efficacy against T. cruzi. […]
# The cytotoxicity of the promising candidate was assessed using 3D cardiac spheroids, seeded at 2.5 × 10^4 cells per well. The cultures were treated with a series of concentrations as previously described, and the cell viability was measured using luminescence following the addition of CellTiter-Glo reagent (Promega Corporation, Madison, WI, USA). […] The data shown represents the mean value accompanied by standard deviations, calculated from at least three independent experiments, each performed in duplicate.
# [3] = system: T. cruzi cysteine protease; test: Cysteine protease activity in trypomastigote protein extract (Z-Phe-Arg-AMC); type: biochemical, Trypanosoma cruzi; settings: 90 min, 37 °C, 33.3, 100 and 300 µM tested
# Description: Total proteins from T. cruzi Dm28c-Luc were extracted using a lysis buffer [100 mM Tris-HCl pH 8.0, 150 mM NaCl, 10% glycerol, 0.5% Triton X-100]. The protein concentration was quantified using the Bradford assay, with bovine serum albumin (BSA) used to establish the standard curve. For the assessment of cysteine protease activity, 5 μg of the protein extract was incubated in an acetate buffer [10 mM sodium acetate, pH 5.0], supplemented with 1 mM dithiothreitol (DTT) in a final volume of 100 μL. The reaction used a fluorogenic peptide substrate, N-benzoyloxycarbonyl-L-phenylalanyl-L-arginine 7-amino-4-methylcoumarin (Z-FR-AMC), at a concentration of 60 μM. Incubation was conducted at 37 °C for 90 min, with relative fluorescence changes measured using a SpectraMax M2e spectrophotometer (Molecular Devices, Sunnyvale, CA, USA). Inhibition assays were performed using three concentrations (33.3, 100, and 300 µM) of the promising candidate and trans-epoxysuccinyl-L-leucylamido(4-guanidino)butane (E-64), each analyzed separately. A control was included using a low DMSO concentration (≤1%). Enzymatic activity was expressed in µmol/min/mg of protein, with residual activity presented as a percentage.
# [4] = system: T. cruzi Dm28c-Luc intracellular amastigotes; test: Anti-T. cruzi in vitro assay, intracellular amastigotes in Vero cells (luminescence); type: cell-based, Trypanosoma cruzi; settings: for IC50: Vero
# Description: The genetically modified Trypanosoma cruzi, clone Dm28c (TcI), expressing luciferase (Dm28c-Luc), was kindly provided by Dr. Cristina Henriques from Oswaldo Cruz Institute—Fiocruz. The parasites were maintained using Vero cell cultures in RPMI 1640 medium enriched with 10% FBS. At 4 days post-infection (dpi), the trypomastigotes released into the culture supernatant were harvested, subjected to centrifugation at 800× g for 20 min at 4 °C, and quantified with a Neubauer chamber. The isolated trypomastigotes were subsequently used for phenotypic screening, drug efficacy assessments employing a 3D cardiac model, washout experiments to evaluate reversibility, drug combination studies, and enzymatic assays.
# To evaluate the effect of pyrazole-imidazoline derivatives against intracellular amastigotes, Vero cells (1.5 × 10^4 cells/well) were cultured in a white 96-well plate with a clear bottom and subsequently infected with T. cruzi Dm28c-Luc at a 10:1 parasite-to-host cell ratio for 24 h. […] Parasite viability was measured by luminescence following the addition of luciferin (300 µg/mL). Background measurements (non-infected cultures incubated with luciferin, as well as luciferin-only controls) were performed to ensure the signal specifically originates from viable parasites. The IC50 and IC90 values, denoting the concentrations that achieve 50% and 90% reductions in viable parasites, respectively, were calculated using GraphPad Prism 8.2.1 software. Additionally, the selectivity index (SI) was calculated as the cytotoxic concentration (CC50) ratio in mammalian cells to the IC50 against T. cruzi, providing insight into the therapeutic window. Potency against intracellular amastigotes was evaluated using the formula 6—Log10 (IC50).
smiles,measurement,setting,value
"FC(F)(F)c1ccc(-n2cc(C3=NCCN3)cn2)cc1 [1k, 1-(4-trifluoromethylphenyl)-4-(4,5-dihydro-1H-imidazol-2-yl)-1H-pyrazole]",CC50 at 72 h,[1],244 ± 21.1 µM
same,parasite load of cell monolayer at 21 dpi (luminescence),T. cruzi (Dm28c-Luc); 28.8 µM,4 × 10^4 A.L.U
same,parasite load of cell monolayer at 21 dpi (luminescence),T. cruzi (Dm28c-Luc); 57.6 µM,1.1 × 10^4 A.L.U
same,sterility of cultures in reversibility assay,"T. cruzi (Dm28c-Luc); 10 days treatment, tested conditions",failed to achieve sterility
same,inhibition at 28.8 µM,"T. cruzi (Dm28c-Luc); Trypanosoma cruzi, Vero, 240 h, 28.8 µM (IC90), 10 days treatment + 10 days washout, read-out: inhibition of parasite load of cell monolayer at 21 dpi",92%
same,CC50 at 72 h,[2],173 ± 6.8 µM
same,inhibition of cysteine protease activity,[3],3.76%
same,SI (selectivity index = CC50/IC50),[4]; CC50 Vero cells / IC50 intracellular amastigotes,73.9
same,IC50,"[4]; Trypanosoma cruzi, 72 h, Dm28c-Luc in Vero cells, mean ± SD, read-out: Intracellular Amastigotes IC50",3.3 ± 0.2 µM
same,IC50,"[4]; Trypanosoma cruzi, intracellular amastigotes, 6 − Log10(IC50), read-out: pIC50 (potency) (converted)",3.98 µM
same,IC90,"[4]; Trypanosoma cruzi, 72 h, Dm28c-Luc in Vero cells, mean ± SD",28.1 ± 0.4 µM
same,enhancement in anti-T. cruzi activity relative to the hit compound,[4]; hit compound = 5-amino-pyrazole-imidazoline,5 fold
